Results: ChEMBL document CHEMBL1154687, “Binding ensemble profiling with photoaffinity labeling (BEProFL) approach: mapping the binding poses of HDAC8 inhibitors” (J Med Chem, 2009)

Molecular target: T1, Histone deacetylase 8 (Homo sapiens, UniProt Q9BY41)
T1 sequence (Q9BY41 whole entry): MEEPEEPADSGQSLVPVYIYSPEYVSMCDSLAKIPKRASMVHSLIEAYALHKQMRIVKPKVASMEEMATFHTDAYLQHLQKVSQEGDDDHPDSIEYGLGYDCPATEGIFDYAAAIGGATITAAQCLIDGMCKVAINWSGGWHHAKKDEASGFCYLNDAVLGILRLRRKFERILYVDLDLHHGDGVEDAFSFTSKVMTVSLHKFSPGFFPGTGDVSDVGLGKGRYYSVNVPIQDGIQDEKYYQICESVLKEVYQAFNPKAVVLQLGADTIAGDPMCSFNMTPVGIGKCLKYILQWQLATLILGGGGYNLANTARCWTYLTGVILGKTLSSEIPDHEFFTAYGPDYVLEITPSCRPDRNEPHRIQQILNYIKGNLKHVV
Test: Inhibition of human recombinant HDAC8 using fluorescent acetylated substrate

## [N-]=[N+]=Nc1ccc(-c2csc(NC(=O)CCCCCCC(=O)NO)n2)cc1
  IC50: 2.71 µM
  Ki: 2.43 µM

## [N-]=[N+]=NCc1cc(COc2ccc(NC(=O)CCCCCCC(=O)NO)cc2)cc(N=[N+]=[N-])c1
  IC50: 7.34 µM
  Ki: 6.59 µM
